From ChEMBL document CHEMBL2169878 (J Med Chem, 2012)
pIC50: −log10 of the molar value.

Key:
[1] = Cytotoxicity against human HepG2 cells after 24 hrs by neutral red dye uptake assay; assay type: cell-based; settings: read-out: TC50
Plasmodium falciparum [2] = experiment: Resistance ratio of IC50 for chloroquine-resistant Plasmodium falciparum W2 to IC50 for chloroquine-sensitive Plasmodium falciparum D10; assay type: functional
Plasmodium falciparum [3] = experiment: Antiplasmodial activity against chloroquine-sensitive Plasmodium falciparum NF54 infected in human erythrocytes assessed as inhibition of [3H]hypoxanthine incorporation incubated for 48 hrs prior to [3H]hypoxanthine addition measured after 48 hrs by liquid scintillation counting; assay type: functional, organism-based
Plasmodium falciparum [4] = experiment: Antiplasmodial activity against chloroquine-resistant Plasmodium falciparum W2 infected in human RBC after 72 hrs by parasite lactate dehydrogenase assay; assay type: functional, organism-based; settings: W2, 72 h
Salmonella typhimurium [5] = experiment: Mutagenicity against Salmonella typhimurium TA100 assessed as revertants at 70 uM incubated for 90 mins followed by drug washout measured after 2 days relative to positive control; assay type: toxicity, organism-based; settings: salmonella enterica subsp. enterica serovar typhimurium
Salmonella typhimurium [6] = experiment: Mutagenicity against Salmonella typhimurium TA98 assessed as revertants at 70 uM incubated for 90 mins followed by drug washout measured after 2 days relative to positive control; assay type: toxicity, organism-based; settings: salmonella enterica subsp. enterica serovar typhimurium
Plasmodium falciparum [7] = experiment: Antiplasmodial activity against chloroquine-resistant Plasmodium falciparum K1 infected in human erythrocytes assessed as inhibition of [3H]hypoxanthine incorporation incubated for 48 hrs prior to [3H]hypoxanthine addition measured after 48 hrs by liquid scintillation counting; assay type: functional, organism-based
Salmonella typhimurium [8] = experiment: Mutagenicity against Salmonella typhimurium TA100 assessed as revertants at 4 uM incubated for 90 mins followed by drug washout measured after 2 days relative to positive control; assay type: toxicity, organism-based; settings: salmonella enterica subsp. enterica serovar typhimurium, 1.5 h
Salmonella typhimurium [9] = experiment: Mutagenicity against Salmonella typhimurium TA98 assessed as revertants at 18 uM incubated for 90 mins followed by drug washout measured after 2 days relative to positive control; assay type: toxicity, organism-based; settings: salmonella enterica subsp. enterica serovar typhimurium
Salmonella typhimurium [10] = experiment: Mutagenicity against Salmonella typhimurium TA100 assessed as revertants at 35 uM incubated for 90 mins followed by drug washout measured after 2 days relative to positive control; assay type: toxicity, organism-based; settings: salmonella enterica subsp. enterica serovar typhimurium
Salmonella typhimurium [11] = experiment: Mutagenicity against Salmonella typhimurium TA98 assessed as revertants at 4 uM incubated for 90 mins followed by drug washout measured after 2 days relative to positive control; assay type: toxicity, organism-based; settings: salmonella enterica subsp. enterica serovar typhimurium
Salmonella typhimurium [12] = experiment: Mutagenicity against Salmonella typhimurium TA98 assessed as revertants at 9 uM incubated for 90 mins followed by drug washout measured after 2 days relative to positive control; assay type: toxicity, organism-based; settings: salmonella enterica subsp. enterica serovar typhimurium
Salmonella typhimurium [13] = experiment: Mutagenicity against Salmonella typhimurium TA100 assessed as revertants at 2 uM incubated for 90 mins followed by drug washout measured after 2 days relative to positive control; assay type: toxicity, organism-based; settings: salmonella enterica subsp. enterica serovar typhimurium
Salmonella typhimurium [14] = experiment: Mutagenicity against Salmonella typhimurium TA100 assessed as revertants at 9 uM incubated for 90 mins followed by drug washout measured after 2 days relative to positive control; assay type: toxicity, organism-based; settings: salmonella enterica subsp. enterica serovar typhimurium, 1.5 h
Plasmodium falciparum [15] = experiment: Resistance ratio of IC50 for chloroquine-resistant Plasmodium falciparum K1 to IC50 for chloroquine-sensitive Plasmodium falciparum NF54; assay type: functional
Salmonella typhimurium [16] = experiment: Mutagenicity against Salmonella typhimurium TA98 assessed as revertants at 2 uM incubated for 90 mins followed by drug washout measured after 2 days relative to positive control; assay type: toxicity, organism-based; settings: salmonella enterica subsp. enterica serovar typhimurium, 1.5 h
Salmonella typhimurium [17] = experiment: Mutagenicity against Salmonella typhimurium TA100 assessed as revertants at 18 uM incubated for 90 mins followed by drug washout measured after 2 days relative to positive control; assay type: toxicity, organism-based; settings: salmonella enterica subsp. enterica serovar typhimurium
Salmonella typhimurium [18] = experiment: Mutagenicity against Salmonella typhimurium TA98 assessed as revertants at 35 uM incubated for 90 mins followed by drug washout measured after 2 days relative to positive control; assay type: toxicity, organism-based; settings: salmonella enterica subsp. enterica serovar typhimurium, 1.5 h
[19] = Cytotoxicity against mouse NIH3T3 cells after 24 hrs by neutral red dye uptake assay; assay type: cell-based; settings: read-out: TC50
Plasmodium falciparum [20] = experiment: Antiplasmodial activity against chloroquine-sensitive Plasmodium falciparum D10 infected in human RBC after 72 hrs by parasite lactate dehydrogenase assay; assay type: functional, organism-based; settings: D10, 72 h

Clc1ccc(C(Nc2ccnc3cc(Cl)ccc23)c2ccc(Cn3ccnc3)cc2)cc1 (racemic)
CC50 at 24 h [1]: 22 µM | Ratio IC50 (Plasmodium falciparum [2]): 1.9 | pIC50 (Plasmodium falciparum [3]): 7.74 | pIC50 (Plasmodium falciparum [4]): 7.24 | Activity (Salmonella typhimurium [5]): 2% | Activity (Salmonella typhimurium [6]): 2% | pIC50 (Plasmodium falciparum [7]): 7.66 | Activity (Salmonella typhimurium [8]): 6% | Activity (Salmonella typhimurium [9]): 3% | Activity (Salmonella typhimurium [10]): 2% | Activity (Salmonella typhimurium [11]): 7% | Activity (Salmonella typhimurium [12]): 0% | Activity (Salmonella typhimurium [13]): 6% | Activity (Salmonella typhimurium [14]): 7% | Ratio IC50 (Plasmodium falciparum [15]): 1.2 | Activity (Salmonella typhimurium [16]): 0% | Activity (Salmonella typhimurium [17]): 5% | Activity (Salmonella typhimurium [18]): 3% | CC50 at 24 h [19]: 35 µM | pIC50 (Plasmodium falciparum [20]): 7.52
